Assay results from US8623924B2, “Compositions and methods for modulating metabolic pathways” (Nusirt Sciences, Inc., priority 2011, dated 2014).
“Also recorded” adds a separate entry of the source. Marks after values point to notes of the source that are not given here.

What was measured:
[1] = Oxygen consumption/substrate utilization (metabolic chambers) in diet-induced obese mice; assay type: in vivo; conditions: low resveratrol 12.5 mg/kg diet, low HMB 2 g CaHMB/kg diet, high HMB 10 g CaHMB/kg diet, leucine 2.42% of diet
Procedure: Six week old male c57/BL6 mice were fed a high-fat diet with fat increased to 45% of energy (Research Diets D12451) for 6 weeks to induce obesity.
Oxygen Consumption/Substrate Utilization: at the end of the obesity induction period (day 0 of treatment group) and at 2 weeks and 6 weeks of treatment, oxygen consumption and substrate utilization was measured via metabolic chambers using the Comprehensive Lab Animal Monitoring Systems (CLAMS, Columbus Instruments, Columbus, Ohio) in subgroups of each treatment group. Each animal was placed in individual cages without bedding that allow automated, non-invasive data collection. Each cage is an indirect open circuit calorimeter that provides measurement of oxygen consumption, carbon dioxide production, and concurrent measurement of food intake. All mice were acclimatized to the chambers for 24 hours prior to the experiment and maintained under the regular 12:12 light:dark cycle with free access to water and food. All experiments were started in the morning and data were collected for 24 hours. Each chamber was passed with 0.6 l of air/min and was sampled for 2 min at 32-minute intervals. Exhaust O2 and CO2 content from each chamber was compared with ambient O2 and CO2 content. Food consumption was measured by electronic scales.

Sirt3 = biological target: T1, Sirt3 (Mus musculus, UniProt Q8R104); test: Sirt3 activity in mitochondrial protein of treated 3T3-L1 adipocytes; assay type: cell-based; conditions: 4 hours, leucine 0.5 mM, HMB 5 uM, resveratrol 200 nM
T1 construct: endogenous in cells; host or cells: 3T3-L1 adipocytes (mitochondrial protein)
T1 sequence (Q8R104 1-334): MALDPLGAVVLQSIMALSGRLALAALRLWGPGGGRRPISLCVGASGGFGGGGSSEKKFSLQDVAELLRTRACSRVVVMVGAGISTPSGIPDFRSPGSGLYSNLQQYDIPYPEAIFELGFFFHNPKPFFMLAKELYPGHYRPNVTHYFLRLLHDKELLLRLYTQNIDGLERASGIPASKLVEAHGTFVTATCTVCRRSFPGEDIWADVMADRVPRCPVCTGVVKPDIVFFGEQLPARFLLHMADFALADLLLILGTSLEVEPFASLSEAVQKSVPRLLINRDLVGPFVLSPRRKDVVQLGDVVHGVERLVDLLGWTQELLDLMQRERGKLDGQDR

SIRT1 = biological target: T2, SIRT1 (Homo sapiens, UniProt Q96EB6); test: SIRT1 activity, cell-free fluorimetric deacetylation assay; assay type: biochemical; conditions: cell-free system
T2 construct: purchased ENZO Life Sciences International, Inc. BML-AK555
T2 sequence (Q96EB6 1-747): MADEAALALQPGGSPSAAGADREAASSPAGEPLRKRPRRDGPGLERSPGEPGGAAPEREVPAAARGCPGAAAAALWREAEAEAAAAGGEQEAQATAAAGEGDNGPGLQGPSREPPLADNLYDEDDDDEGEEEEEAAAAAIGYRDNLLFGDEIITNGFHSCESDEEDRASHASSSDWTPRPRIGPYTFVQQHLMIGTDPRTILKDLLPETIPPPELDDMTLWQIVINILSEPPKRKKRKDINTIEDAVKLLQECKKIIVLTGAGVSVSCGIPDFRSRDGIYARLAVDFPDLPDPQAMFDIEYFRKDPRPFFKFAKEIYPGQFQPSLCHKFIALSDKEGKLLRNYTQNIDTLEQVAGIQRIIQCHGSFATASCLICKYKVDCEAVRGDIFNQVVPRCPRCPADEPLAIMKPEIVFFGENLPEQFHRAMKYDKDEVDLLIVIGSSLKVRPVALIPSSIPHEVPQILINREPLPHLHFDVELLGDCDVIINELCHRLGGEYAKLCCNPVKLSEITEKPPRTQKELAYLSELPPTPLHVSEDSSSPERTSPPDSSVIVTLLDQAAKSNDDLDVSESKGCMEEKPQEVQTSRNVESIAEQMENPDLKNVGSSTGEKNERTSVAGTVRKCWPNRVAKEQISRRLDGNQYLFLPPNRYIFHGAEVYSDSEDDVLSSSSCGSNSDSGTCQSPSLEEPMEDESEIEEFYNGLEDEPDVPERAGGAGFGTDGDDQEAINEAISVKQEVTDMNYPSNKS
Procedure: SIRT1 activity was measured by using the SIRT1 Fluorimetric Drug Discovery Kit (BML-AK555, ENZO Life Sciences International, Inc. PA, USA). In this assay, SIRT1 activity is assessed by the degree of deacetylation of a standardized substrate containing an acetylated lysine side chain. The substrate utilized is a peptide containing amino acids 379-382 of human p53 (Arg-His-Lys-Lys[Ac]), an established target of SIRT1 activity; SIRT1 activity is directly proportional to the degree of deacetylation of Lys-382. Samples were incubated with peptide substrate (25 μM), and NAD^+ (500 μM) in a phosphate-buffered saline solution at 37° C. on a horizontal shaker for 45 minutes. The reaction was stopped with the addition of 2 mM nicotinamide and a developing solution that binds to the deacetylated lysine to form a fluorophore. Following 10 minutes incubation at 37° C., fluorescence was read in a plate-reading fluorometer at an excitation wavelength of 360 nm and an emission wavelength of 450 nm. […] A standard curve was constructed using deacetylated substrate (0-10 μM).

MCP-1 = test: Inflammatory biomarker MCP-1 in diet-induced obese mice; assay type: in vivo; conditions: 6 weeks on diet, low resveratrol 12.5 mg/kg diet, low HMB 2 g CaHMB/kg diet, high HMB 10 g CaHMB/kg diet, leucine 2.42% of diet

Structure (SMILES): CC(C)(O)CC(=O)O [HMB]
- Heat Production [1]: 0.526 ± 0.011^a
- Respiratory Exchange Ratio (24 hr RER) [1]: 0.844 ± 0.012^a
- increase in Sirt3 activity (Sirt3): no significant independent effect; also recorded: no independent effects
- SIRT1 activity (SIRT1): significantly increased SIRT1 activity
- MCP-1 (pg/mL) (MCP-1): 116.8 ± 9.3^a pg/mL
